In patent US9012365B2, “Compatibility agents for herbicidal formulations comprising 2,4-(Dichlorophenoxy) acetic acid salts” (priority 2006, dated 2015):

Columns and labels:
Type in all cases: physicochemical
[1] = System appearance and pH after adding chemicals into System A
Description: System appearance after adding various chemicals into “System A” which was 100 g of 3% 2,4-D DMA (50%)+90% water (1000 ppm)+7% Ammonium sulfate (40%).

[2] = Appearance of 10 g solution of (2.5 wt % ai 2,4-D DMA + tested chemical) after adding 40% AMS; settings: summary statement of the description
[3] = as above; settings: for 0 gram Appearance / Addition Weight of 40% AMS: System was cloud after adding / Addition Weight of 40% AMS: System was clear after adding: 2.5 wt % ai 2,4-D DMA; for Addition Weight of 40% AMS: System was cloud after adding / Addition Weight of 40% AMS: System was clear after adding: 10 g solution; for Appearance, added 40% AMS wt into 10 g (2.5% 2,4-D + 0.13% tested chemical in DI water): at 0 g AMS added, or at all additions (All); for Added 40% AMS wt into 10 g (2.5% 2,4-D + 0.13% tested chemical in DI water), hazy / Added 40% AMS wt into 10 g (2.5% 2,4-D + 0.13% tested chemical in DI water), still clear: Table of Example 1
Description: In this example, the appearance of a 10 g solution of (2.5 wt % ai 2,4-D DMA+tested chemical) was evaluated after adding 40% AMS

[4] = Electrolyte tolerance: 40% AMS added into 10 g 0.13% tested chemical in DI water; settings: for Appearance, added 40% AMS wt into 10 g 0.13% tested chemical in DI water: at 0 g AMS added, or at all additions (All); for Added 40% AMS wt into 10 g 0.13% tested chemical in DI water, hazy / Added 40% AMS wt into 10 g 0.13% tested chemical in DI water, still clear: no 2,4-D
Description: (§1) In example 1, the electrolyte tolerance of 6 chemicals with and without the presence of 2,4-D amine was evaluated in ammonium sulfate system.

[5] = Solubility of tested chemical in DI water
Description: as §1

[6] = Solubility of tested chemical in 40% AMS (ammonium sulfate)
Description: as §1

[7] = Crystal formation of 2,4-D in 1000 ppm hard water + AMS after post-adding surfactant; settings: for Appearance of sample: 0.069 g surfactant added to 3% 2,4-DMA (50%) + 90% water (1000 ppm hardness) + 7% AMS (40%), room temperature
Description: FIG. 3 is a photograph illustrating the effect of various concentrations of cocoamine-2EO (“Coco-2”) and/or tallow-10EO (“Tallow-10”) on crystal formation of 2,4-D. (A) 0% Coco-2/0% Tallow-10. (B) 100% Coco-2/0% Tallow-10. (C) 45% Coco-2/55% Tallow-10. (D) 50% Coco-2/50% Tallow-10. (E) 55% Coco-2/45% Tallow-10.(F) 60% Coco-2/40% Tallow-10. (G) 0% Coco-2/100% Tallow-10.
In FIG. 3, sample (0:0) was 3% 2,4-DMA (50%)+90% water (1000 ppm hardness)+7% AMS (40%) and it readily formed crystals at room temperature.
The first sample, (0:0), on the left had no surfactant and it had about 15% crystal at the bottom. The rest of the samples had 0.069 g surfactant post-added to the first sample. […] Sample (0:100) was a little hazy with ˜5% crystal at bottom.

[8] = added into 100 g System A, added wt 0.815 g Ethoquad, 0.079 g NH4OH, 0.091 g dimethylamine, 1.07 g NaOH
[9] = added wt 1.35 grams into 100 g System A
[10] = 0.13 wt % a.i. of tested chemical, 0 gram 40% AMS
[11] = 0.13 wt % a.i. of tested chemical
[12] = 1.25 wt % a.i. of tested chemical

Compound	0 gram Appearance [3, 10]	Addition Weight of 40% AMS: System was cloud after adding [3, 11] [grams]	Addition Weight of 40% AMS: System was clear after adding [3, 11]	further results
[Na+].[OH-] [10% NaOH, NaOH]	–	–	–	Appearance [1, 8]: clear; pH [1, 8]: 6; Appearance [1, 9]: crystals re-appeared; pH [1, 9]: 10
CNC [Dimethylamine 40%, Dimethylamine]	–	–	–	Appearance [1, 8]: slightly hazy; pH [1, 8]: 7.8
CC(C)O [Isopropyl alcohol]	Clear	0.461	–	Suitability for increasing the solubility of 2,4-D non-amine salt (in words) [2]: ineffective
CN1CCCC1=O [Methyl-2-pyrrolidinone]	Clear	0.567	0.36 grams	Suitability for increasing the solubility of 2,4-D non-amine salt (in words) [2]: ineffective
N.O [NH4OH 28-30%, NH4OH]	–	–	–	Appearance [1, 8]: hazy; pH [1, 8]: 8
CCCCC(CC)COC(=O)CC(C(=O)OCC(CC)CCCC)S(=O)(=O)[O-].[Na+] (stereo not drawn) [Sodium dioctyl sulfonsuccinate]	very cloudy	0	very cloudy	Suitability for increasing the solubility of 2,4-D non-amine salt (in words) [2]: ineffective
CCCCCCCCO [octanol]	–	–	–	Suitability for increasing the solubility of 2,4-D non-amine salt (in words) [2]: ineffective
Castor oil ethoxylate-10EO	Haze	0	Haze	Appearance, added 40% AMS wt into 10 g 0.13% tested chemical in DI water [4]: All hazy; Solubility / compatibility in water or AMS solution (in words) ([4]; without 2,4-D amine): little compatibility; Appearance, added 40% AMS wt into 10 g (2.5% 2,4-D + 0.13% tested chemical in DI water) [3]: All hazy; Solubility of tested chemical in DI Water [5]: <0.007%; Solubility of testes chemical in 40% AMS [6]: <0.007%
Castor oil ethoxylate-36EO	Clear	2.141	1.726 grams	Appearance, added 40% AMS wt into 10 g 0.13% tested chemical in DI water [4]: clear; Added 40% AMS wt into 10 g 0.13% tested chemical in DI water, hazy [4]: 3.74 hazy g; Added 40% AMS wt into 10 g 0.13% tested chemical in DI water, still clear [4]: 3.57 g; Added 40% AMS wt into 10 g (2.5% 2,4-D + 0.13% tested chemical in DI water), hazy [3]: 2.14 g; Added 40% AMS wt into 10 g (2.5% 2,4-D + 0.13% tested chemical in DI water), still clear [3]: 1.73 g; Appearance, added 40% AMS wt into 10 g (2.5% 2,4-D + 0.13% tested chemical in DI water) [3]: clear; AMS electrolyte tolerated relative to 55EO castor oil ethoxylate ([3]; in 2.5% 2,4-D DMA solution): 3 times; Solubility of tested chemical in DI Water [5]: >20%; Solubility of testes chemical in 40% AMS [6]: <0.036%
Castor oil ethoxylate-55EO	Clear	0.554	0.476 grams	Appearance, added 40% AMS wt into 10 g 0.13% tested chemical in DI water [4]: clear; Added 40% AMS wt into 10 g 0.13% tested chemical in DI water, hazy [4]: 3.74 hazy g; Added 40% AMS wt into 10 g 0.13% tested chemical in DI water, still clear [4]: 3.63 g; Added 40% AMS wt into 10 g (2.5% 2,4-D + 0.13% tested chemical in DI water), hazy [3]: 0.55 g; Added 40% AMS wt into 10 g (2.5% 2,4-D + 0.13% tested chemical in DI water), still clear [3]: 0.48 g; Appearance, added 40% AMS wt into 10 g (2.5% 2,4-D + 0.13% tested chemical in DI water) [3]: clear; Solubility of tested chemical in DI Water [5]: >20%
Soya acid ethoxylate-10EO	Clear	0.756	0.482 grams	–
Tall oil fatty acid amidoamine-10EO	Clear	2.243	1.591 grams	–
Tall oil fatty acid-4EO	very cloudy	0	very cloudy	–
Tallow acid + triethanolamine + 10EO	Clear	3.049	2.087 grams	–
Tallowamine-2EO	Clear	1.513	1.31 grams	–
Tallowamine-6EO	Clear	1.751	1.485 grams	–
Tallowamine-10EO	Clear	1.717	1.503 grams	Appearance of sample [7]: dissolved most crystals; Appearance of sample ([7]; listed as Sample (0:100)): a little hazy; Crystal at bottom ([7]; 0.069 g surfactant post-added to sample (0:0)): ~5%
Tallowamine-14EO	Clear	1.526	1.273 grams	–
Tallowamine-15EO methylchloride	Clear	2.014	1.731 grams	–
Trideceth-4	cloudy	0	cloudy	–
Trideceth-6	Clear	0.717	0.47 grams	–
Trideceth-8	Clear	0.684	0.458 grams	–
Trideceth-10	Clear	0.685	0.557 grams	–
Trideceth-12	Clear	0.688	0.581 grams	–
Triethyl ammonium phosphate	–	–	–	0 gram Appearance [3, 12]: Clear; Addition Weight of 40% AMS: System was clear after adding [3, 12]: 0.303 grams; Addition Weight of 40% AMS: System was cloud after adding [3, 12]: 0.535 grams
Tristyrylphenol + 15EO	Clear	2.509	2.102 grams	–
Tristyrylphenol + 16EO	Clear	2.235	1.084 grams	–
ethoxylated (2EO) cocoamide oxides	–	–	–	Suitability for increasing the solubility of 2,4-D non-amine salt (in words) [2]: ineffective
